# B1: PINK1^wt (Homo sapiens) (protein)
# chain: LQGFRLEEYLIGQSIGKGCSAAVYEATMPTLPQNLEVTKSTGLLPGRGPGTSAPGEGQERAPGAPAFPLAIKMMWNISAGSSSEAILNTMSQELVPASRVALAGEYGAVTYRKSKRGPKQLAPHPNIIRVLRAFTSSVPLLPGALVDYPDVLPSRLHPEGLGHGRTLFLVMKNYPCTLRQYLCVNTPSPRLAAMMLLQLLEGVDHLVQQGIAHRDLKSDNILVELDPDGCPWLVIADFGCCLADESIGLQLPFSSWYVDRGGNGCLMAPEVSTARPGPRAVIDYSKADAWAVGAIAYEIFGLVNPFYGQGKAHLESRSYQEAQLPALPESVPPDVRQLVRALLQREASKRPSARVAANVLHLSLWGEHILALKNLKLDKMVGWLLQQSAATLLANRLTEKCCVETKMKMLFLANLECETLCQAALLLCSWRAAL
# notes: kinase domain with c-terminal extension (PINK1, residues 148-581) with a C-terminal FLAG3 tag; made in house; host or cells: baculovirus / Sf21 insect cells
# Key:
# [1] = test system: rat hippocampal neurons; experiment: Mitochondrial motility assay in axons; type: cell-based; settings: 50 μM, 48 hours pre-treatment
# Description: (§1) Mitochondrial motility assay: Primary hippocampal neuronal cultures were co-transfected with mitochondrial targeted GFP (mitoGFP) and mCherry-tagged synaptophysin (mCherrySynaptophysin) to allow for the live identification of mitochondria in axons.
# (§2) To test if kinetin decreases motility we examined the mobility of axonal mitochondria in hippocampal neurons. Primary hippocampal neuronal cultures were co-transfected with mitoGFP and mCherry-tagged Synaptophysin (mCherrySynaptophysin) to allow for the live identification of mitochondria in axons. […] To test the PINK1 dependency of this process, we treated control mouse C57 (PINK1 wildtype) and PINK1 knockout derived hippocampal neurons with kinetin or 9MK and imaged their mitochondria.
# [2] = test system: PINK1 knockout derived hippocampal neurons; experiment: Mitochondrial motility assay in axons; type: cell-based, mouse
# Description: as §1, §2
# [3] = test system: HeLa cells; experiment: Parkin recruitment to depolarized mitochondria in HeLa cells, PINK1 form not stated; type: cell-based
# Experimental: Parkin phosphorylation and mitochondrial translocation assay: HeLa cells were grown in DMEM supplemented with 10% FBS. Log phase cells were plated in 24 well plates with glass coverslips (Mattek) pretreated with fibronectin. Cells were pretreated with 50 μM of the indicated compound, followed by transfection with MitoGFP, mCherry Parkin, and full length PINK1FLAG3 in a 1:4:2 ratio using Fugene 6 (Promega). Fields of cells were selected by expression of MitoGFP (6 fields/well-3 wells/condition) and imaged at five-minute intervals following depolarization with 5 μM CCCP. Quantification was performed according to published protocols^3 and by creation of a Matlab based script.
# Our ability to enhance PINK1 activity in-vitro using KTP led us to investigate means by which to achieve enhanced activity in cells expressing PINK1. […] We treated cells with either kinetin or adenine (FIG. 2A) and measured Parkin localization following mitochondrial depolarization with CCCP (FIG. 2B). HeLa cells, which have low levels of endogenous PINK1 and PARKIN, were transfected with wildtype or PINK1^G309D, mCherryParkin, and mitoGFP. After 48 hours of incubation with 25 μM adenine, kinetin or equivalent DMSO, we imaged CCCP-mediated depolarization of mitochondria (FIGS. 2C, 2D) and calculated the percentage of GFP labelled mitochondria with mCherryParkin associated (FIG. 2E). […]
# [4] = molecular target: PINK1^wt (Homo sapiens, UniProt Q9BXM7); experiment: PINK1 kinase assay with ATP analogs (autophosphorylation, TRAP1 transphosphorylation); type: biochemical, H. sapiens; design: kinase domain with c-terminal extension (PINK1, residues 148-581) with a C-terminal FLAG3 tag; made in house; host or cells: baculovirus / Sf21 insect cells; settings: for utilization to phosphorylate TRAP1: SF21 expressed PINK1; for transphosphorylation of TRAP1, activity versus ATP: GST tagged kinase domain 156-496 expressed in E. coli
# Description: (§3) We expressed both PINK1^wt and PINK1^G309D GST tagged kinase domain (156-496PINK1) in E. coli and performed kinase assays with a series of ATP analogs.
# (§4) Expression, purification and enzymatic characterization of PINK1: H. sapiens PINK1 kinase domain (PINK1, residues 156-496) with an N-terminal GST tag was expressed using a pGEX vector using standard techniques. H. sapiens PINK1 kinase domain with c-terminal extension (PINK1, residues 148-581) with a C-terminal FLAG3 tag was co-expressed with full length TRAP1 baculovirus/Sf21 insect cell system. […] The reaction was performed using 50 mM Tris-HCl, 150 mM NaCl, 10 mM MgCl2, 3 mM MnCl2, 0.5 mM DTT and 1 mg/ml substrate if indicated.
# (§5) We constructed several FLAG3 tagged truncation variants of PINK1 and induced expression using baculovirus infected SF21 insect cells.
# (§6) We expressed GST tagged kinase domain (PINK11156-496) in E. coli and performed a kinase assay.
# [5] = molecular target: PINK1^G309D (Homo sapiens, UniProt Q9BXM7, G309D); experiment: as above; type: biochemical, H. sapiens; design: kinase domain with c-terminal extension (PINK1, residues 148-581) with a C-terminal FLAG3 tag; made in house; host or cells: baculovirus / Sf21 insect cells; settings: GST tagged kinase domain 156-496 expressed in E. coli
# Chain of PINK1^G309D (Q9BXM7 148-581 G309D): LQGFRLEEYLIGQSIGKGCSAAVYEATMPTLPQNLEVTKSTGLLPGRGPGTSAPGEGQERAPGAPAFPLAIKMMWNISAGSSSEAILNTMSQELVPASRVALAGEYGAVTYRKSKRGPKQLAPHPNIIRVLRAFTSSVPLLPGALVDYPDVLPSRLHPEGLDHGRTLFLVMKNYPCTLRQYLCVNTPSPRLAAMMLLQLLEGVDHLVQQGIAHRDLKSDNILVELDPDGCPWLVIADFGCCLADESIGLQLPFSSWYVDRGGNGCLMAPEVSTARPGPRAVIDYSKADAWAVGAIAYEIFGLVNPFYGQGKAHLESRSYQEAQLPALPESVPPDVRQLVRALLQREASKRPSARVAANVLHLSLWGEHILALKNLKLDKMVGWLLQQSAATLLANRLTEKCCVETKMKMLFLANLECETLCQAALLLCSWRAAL
# Description: as §3, §4, §5, §6
# [6] = substrate: Nc1ncnc2c1ncn2[C@@H]1O[C@H](COP(=O)(O)OP(=O)(O)OP(=O)(O)O)[C@@H](O)[C@H]1O; experiment: purified protein, by the assay type; type: biochemical, H. sapiens; settings: other: catalytic constants for PINK1, nucleotide as substrate, autophosphorylation, SF21 expressed PINK1 148-581
# [7] = catalytic constants for PINK1, nucleotide as substrate, autophosphorylation, SF21 expressed PINK1 148-581
molecule,measurement,setting,value
"Cn1cnc2c(NCc3ccco3)ncnc21 [9-methyl-Kinetin, reference compound]",mitochondrial movement / motility,[1],did not affect mitochondrial motility
same,mitochondrial motility,[2],no change in motility
"c1ccc(CNc2ncnc3nc[nH]c23)cc1 [N6 benzyl adenine, reference compound]",Parkin recruitment to CCCP depolarized mitochondria,[3],less active than kinetin
"O=P(O)(O)OP(=O)(O)OP(=O)(O)OC[C@H]1O[C@@H](n2cnc3c(NCc4ccccc4)ncnc32)[C@H](O)[C@@H]1O [N^6 Benzyl, N^6 Benzyl ATP, reference compound]",utilization to phosphorylate TRAP1,[4],not
"O=P(O)(O)OP(=O)(O)OP(=O)(O)OC[C@H]1O[C@@H](n2cnc3c(NCCc4ccccc4)ncnc32)[C@H](O)[C@@H]1O [N^6 Phenethyl ATP, reference compound]",utilization to phosphorylate TRAP1,[4],not
N^6 furfuryl ATP [KTP],autophosphorylation,[5],increased levels of autophosphorylation
same,"transphosphorylation of TRAP1, activity versus ATP",[5],amplified
same,"transphosphorylation of TRAP1, activity versus ATP",[5]; listed as N^6 FF ATP,increased catalytic rate than ATP
same,PINK1 activity stimulation versus other N6 substituted ATP analogs,[4]; FIG. 12,stimulated
same,"transphosphorylation of TRAP1, activity versus ATP",[4],amplified
same,"transphosphorylation of TRAP1, activity versus ATP",[4]; listed as N^6 FF ATP,more efficiently than ATP
same,fold higher Vmax versus ATP,[4]; PINK1 autophosphorylation,1.84 fold
same,utilization to phosphorylate TRAP1,[4],utilizes
same,Km,[4]; [7],51.7 µM
same,Vmax,[4]; [7],0.0098 ± 0.002 min⁻¹
B1,Km,[6],18.4 µM
same,kcat,[6],8.83e-05 ± 1.7e-05 s⁻¹

# — patent US11427588B2, “Compositions and methods for treating neurodegenerative diseases and cardiomyopathy” (THE REGENTS OF THE UNIVERSITY OF CALIFORNIA, priority 2013, dated 2022)
